{
  "source": "PubChem BioAssay AID1963436",
  "about": "(Molecular Pharmacology Branch, DTP, NCI, 2024)",
  "tested_on": "OVCAR-5 complex spheroid (HUVEC/MSC), viability % T/C",
  "experiment": "Anticancer human tumor OVCAR-5 cell line growth inhibition [Asc];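 further: spheroids exposed to agents for 7 days before readout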;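 on viability, T/C: 100% = DMSO vehicle-treated wells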",
  "details": "for viability, T/C: stronger effect = lower value",
  "procedure,_shortened": "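Concentration series start at each agent's clinical Cmax, or at 10 microM when none is established, and drop in half-log steps; agents are applied alone or together to complex spheroids built with HUVEC and hMSC.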",
  "note": "Several values for one entry are separate records, joined by “and”; a condition that tells them apart may be missing. Equal entries are not always repeated.",
  "data": [
    {"smiles": "O=C(c1cc(Cc2n[nH]c(=O)c3ccccc23)ccc1F)N1CCN(C(=O)C2CC2)CC1", "note": "+ CCN1C(C(=O)NC23CCC(C(=O)O)(CC2)CC3)C(c2cccc(Cl)c2F)C2(C(=O)Nc3cc(Cl)ccc32)C12CCCCC2", "values": [
      {"measurement": "IC50", "setting": "curve of first compound, second compound 0.03 µM", "value": "> 10000", "unit": "nM"},
      {"measurement": "IC50", "setting": "curve of first compound, second compound 0.0949 µM", "value": "> 10000", "unit": "nM"},
      {"measurement": "IC50", "setting": "curve of first compound, second compound 0.3 µM", "value": "> 10000", "unit": "nM"},
      {"measurement": "IC50", "setting": "curve of first compound, second compound 0.949 µM", "value": "> 10000", "unit": "nM"},
      {"measurement": "IC50", "setting": "curve of first compound, second compound 3 µM", "value": "> 10000", "unit": "nM"},
      {"measurement": "viability, T/C", "setting": "second compound 0.03 µM, first compound 0.0316 µM", "value": 96, "unit": "%"},
      {"measurement": "viability, T/C", "setting": "second compound 0.03 µM, first compound 0.1 µM", "value": 104, "unit": "%"},
      {"measurement": "viability, T/C", "setting": "second compound 0.03 µM, first compound 0.316 µM", "value": 83.9, "unit": "%"},
      {"measurement": "viability, T/C", "setting": "second compound 0.03 µM, first compound 1 µM", "value": 86.8, "unit": "%"},
      {"measurement": "viability, T/C", "setting": "second compound 0.03 µM, first compound 3.16 µM", "value": 92.5, "unit": "%"},
      {"measurement": "viability, T/C", "setting": "second compound 0.03 µM, first compound 10 µM", "value": 83.3, "unit": "%"},
      {"measurement": "viability, T/C", "setting": "second compound 0.0949 µM, first compound 0.0316 µM", "value": 101, "unit": "%"},
      {"measurement": "viability, T/C", "setting": "second compound 0.0949 µM, first compound 0.1 µM", "value": 110, "unit": "%"},
      {"measurement": "viability, T/C", "setting": "second compound 0.0949 µM, first compound 0.316 µM", "value": 93.8, "unit": "%"},
      {"measurement": "viability, T/C", "setting": "second compound 0.0949 µM, first compound 1 µM", "value": 85.8, "unit": "%"},
      {"measurement": "viability, T/C", "setting": "second compound 0.0949 µM, first compound 3.16 µM", "value": 85.4, "unit": "%"},
      {"measurement": "viability, T/C", "setting": "second compound 0.0949 µM, first compound 10 µM", "value": 85, "unit": "%"},
      {"measurement": "viability, T/C", "setting": "second compound 0.3 µM, first compound 0.0316 µM", "value": 101, "unit": "%"},
      {"measurement": "viability, T/C", "setting": "second compound 0.3 µM, first compound 0.1 µM", "value": 97.2, "unit": "%"},
      {"measurement": "viability, T/C", "setting": "second compound 0.3 µM, first compound 0.316 µM", "value": 97.7, "unit": "%"},
      {"measurement": "viability, T/C", "setting": "second compound 0.3 µM, first compound 1 µM", "value": 75.1, "unit": "%"},
      {"measurement": "viability, T/C", "setting": "second compound 0.3 µM, first compound 3.16 µM", "value": 86.3, "unit": "%"},
      {"measurement": "viability, T/C", "setting": "second compound 0.3 µM, first compound 10 µM", "value": 82.7, "unit": "%"},
      {"measurement": "viability, T/C", "setting": "second compound 0.949 µM, first compound 0.0316 µM", "value": 106, "unit": "%"},
      {"measurement": "viability, T/C", "setting": "second compound 0.949 µM, first compound 0.1 µM", "value": 105, "unit": "%"},
      {"measurement": "viability, T/C", "setting": "second compound 0.949 µM, first compound 0.316 µM", "value": 102, "unit": "%"},
      {"measurement": "viability, T/C", "setting": "second compound 0.949 µM, first compound 1 µM", "value": 92, "unit": "%"},
      {"measurement": "viability, T/C", "setting": "second compound 0.949 µM, first compound 3.16 µM", "value": 89, "unit": "%"},
      {"measurement": "viability, T/C", "setting": "second compound 0.949 µM, first compound 10 µM", "value": 97.6, "unit": "%"},
      {"measurement": "viability, T/C", "setting": "second compound 3 µM, first compound 0.0316 µM", "value": 104, "unit": "%"},
      {"measurement": "viability, T/C", "setting": "second compound 3 µM, first compound 0.1 µM", "value": 115, "unit": "%"},
      {"measurement": "viability, T/C", "setting": "second compound 3 µM, first compound 0.316 µM", "value": 111, "unit": "%"},
      {"measurement": "viability, T/C", "setting": "second compound 3 µM, first compound 1 µM", "value": 96.5, "unit": "%"},
      {"measurement": "viability, T/C", "setting": "second compound 3 µM, first compound 3.16 µM", "value": 88.9, "unit": "%"},
      {"measurement": "viability, T/C", "setting": "second compound 3 µM, first compound 10 µM", "value": 91.5, "unit": "%"}
    ]},
    {"smiles": "C=C(F)C(=O)N1CCN(c2nc(OCC3CCCN3C)nc3c2CCN(c2cccc4cccc(Cl)c24)C3)CC1CC#N", "note": "(configuration not stated)", "values": [
      {"measurement": "viability, T/C", "setting": "compound 0.0316 µM", "value": "102% and 108% and 105%"},
      {"measurement": "viability, T/C", "setting": "compound 0.1 µM", "value": "100% and 107% and 97.9%"},
      {"measurement": "viability, T/C", "setting": "compound 0.316 µM", "value": "83.5% and 91.4% and 89.7%"},
      {"measurement": "viability, T/C", "setting": "compound 1 µM", "value": "54.5% and 60.8% and 67.8%"},
      {"measurement": "viability, T/C", "setting": "compound 3.16 µM", "value": "10.6% and 8.67% and 19.2%"},
      {"measurement": "viability, T/C", "setting": "compound 10 µM", "value": "0.23% and 0.22% and 0.3%"},
      {"measurement": "IC50", "setting": "curve of compound", "value": "1050 nM and 1210 nM and 1490 nM"}
    ]}
  ]
}
